Laboratory results from ChEMBL document CHEMBL1130535, “Synthesis of triphosphonate analogues of farnesyl pyrophosphate. Inhibitors of squalene synthase and protein:farnesyl transferase” (Bioorg Med Chem Lett, 1997).
pIC50: −log10 of the molar value.

How the values were obtained:
[1] = molecular target: Protein farnesyltransferase (Homo sapiens, UniProt P49354+P49356); experiment: Inhibition of Farnesyl Transferase; format: protein-complex assay
Squalene synthase = molecular target: T1, Squalene synthase (Homo sapiens, UniProt P37268); experiment: Inhibition of Squalene Synthase
T1 sequence (P37268 whole entry): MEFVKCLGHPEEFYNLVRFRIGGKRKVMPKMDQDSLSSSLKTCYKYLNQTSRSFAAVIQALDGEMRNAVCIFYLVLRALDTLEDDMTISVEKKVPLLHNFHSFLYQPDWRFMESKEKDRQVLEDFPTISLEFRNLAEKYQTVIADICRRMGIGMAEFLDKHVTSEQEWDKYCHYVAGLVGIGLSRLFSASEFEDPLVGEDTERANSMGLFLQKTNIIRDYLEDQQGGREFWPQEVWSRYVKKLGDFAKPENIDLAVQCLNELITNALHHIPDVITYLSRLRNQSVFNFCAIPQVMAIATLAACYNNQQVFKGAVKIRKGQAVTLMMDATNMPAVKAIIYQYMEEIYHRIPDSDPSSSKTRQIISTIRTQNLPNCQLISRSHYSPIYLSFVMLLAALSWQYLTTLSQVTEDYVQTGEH

Structure (SMILES)	pIC50 [1]	pIC50 (Squalene synthase)
CC(C)=CCC/C(C)=C/CC/C(C)=C/CC(P(=O)(O)O)P(=O)(O)CP(=O)(O)O (stereo not given)	5.74	5.96
CC(C)=CCC/C(C)=C/CC/C(C)=C/CC1P(=O)(O)CP(=O)(O)OP1(=O)O (stereo not given)	4.47	4.33
CC(C)=CCC/C(C)=C/CC/C(C)=C/CC(P(=O)(O)O)P(=O)(O)O	4.87	7.74
CC(C)=CCC/C(C)=C/CC/C(C)=C/CC(C/C=C(\C)CC/C=C(\C)CCC=C(C)C)(P(=O)(O)O)P(=O)(O)CP(=O)(O)O (stereo not given)	5.40	4.63
CC(C)=CCC/C(C)=C/CC/C(C)=C/CC1(C/C=C(\C)CC/C=C(\C)CCC=C(C)C)P(=O)(O)CP(=O)(O)OP1(=O)O (stereo not given)	4.25	< 4.30
